Results from US8338430B2, “N-substituted piperazines” (Dow AgroSciences, LLC., priority 2005, dated 2012).
Read-outs that look alike come from different tables or passages of the source.

Experiments:
Type in all cases: in vivo
[1] = test system: cotton aphid (Aphis gossypi); test: Cotton aphid foliar spray test on squash (CA 200); details: 72 h, squash cotyledons, 3 days, Corrected % Control (Abbott), read-out: CA 200: % control against cotton aphid in foliar spray tests
Method: The compounds identified in TABLE 2 were prepared using the procedures illustrated in the previous examples and these compounds were tested against beet armyworm, mosquito, fruit fly, and cotton aphid using protocols described after. […]
Squash with fully expanded cotyledon leaves were trimmed to one cotyledon per plant and infested with cotton aphid (wingless adult and nymph) 1 day prior to chemical application.
Each plant is examined before chemical application to ensure proper infestation (ca. 30-70 aphids per plant). Compounds (3 mg) were dissolved in 3 mL of acetone:methanol (50:50) solvent, forming stock solutions of 1000 ppm. The stock solutions were then diluted with 0.025% Tween 20 (in H2O) to make […]. A hand-held Devilbiss sprayer was used to apply the spray solutions until runoff to both sides of the squash cotyledon leaves. Four plants (4 replications) were used for each concentration of each compound. Reference plants (solvent check) were sprayed with 0.025% Tween 20 only. Treated plants were held in a holding room for 3 days at approximately 23° C. and 40% RH before the number of live aphids on each plant was recorded. Insecticidal activity was measured by Corrected % Control using Abbott's correction formula and presented in TABLE 2: Corrected % Control=100*(X−Y)/X • where X=No. of live aphids on solvent check plants • Y=No. of live aphids on treated plants

[2] = test system: mosquito (Aedes aegypti) larvae; test: Mosquito larvae mortality (AEDSAE); details: 72 h, read-out: AEDSAE: % mortality against mosquito larvae
Method: (§1) The compounds identified in TABLE 2 were prepared using the procedures illustrated in the previous examples and these compounds were tested against beet armyworm, mosquito, fruit fly, and cotton aphid using protocols described after.
(§2) Compounds were evaluated on mosquito (Aedes aegypti) larvae, beet armyworm (Spodoptera exigua) larvae, fruit fly (Drosophila melanogaster) adults and cotton aphid (Aphis gossypi). Newly hatched mosquito larvae (about 50 larvae/well) in 96-well microtiter plates in 230 ul of water containing powdered liver/yeast extract (1 gr/100 ml) were treated with 20 ppm solution of the test compound. Following treatment the plates were covered with a lid and mortality was determined three days after treatment. Beet armyworm eggs (about 5 per well) were placed on artificial diet (in a 96-well microtiter plate) treated with a 4000 ppm solution of a test compound in combination with piperonyl butoxide (in approximate ratio of 1:4). After infestation, the plates were covered with a lid and mortality was determined seven days following treatment. Five-day old fruit fly adults (about 5/well) were placed in deep-well microtiter plates containing 250 ul/well of a 2% agar-10% sucrose mixture that had been treated with a 4000 ppm solution of a test compound. Following infestation, the plates were covered with a lid and mortality was determined three days after treatment. Treatments for the mosquito and armyworm were replicated six times each, that of the fruit fly three times each.

[3] = test system: fruit fly (Drosophila melanogaster) adults; test: Adult fruit fly mortality on artificial diet (DROSME); details: 72 h, read-out: DROSME: % mortality against adult fruit fly on artificial diet
Method: as §1, §2

[4] = test system: beet armyworm (Spodoptera exigua) larvae; test: Beet armyworm mortality on artificial diet (LAPHEG); details: 168 h, read-out: LAPHEG: % mortality against beet armyworm on artificial diet
Method: as §1, §2

[5] = 20 μg/ml, mortality three days after treatment
[6] = 4000 μg/ml, mortality three days after treatment
[7] = 4000 μg/ml, with piperonyl butoxide (approx. 1:4), mortality seven days after treatment

SMILES | pest or weed control at 200 ppm [1] | mortality at 20 µg/mL [2, 5] | mortality at 4000 µg/mL [3, 6] | mortality at 4000 µg/mL [4, 7] | mortality at 20 µg/mL [2] | mortality at 4000 µg/mL [3] | mortality at 4000 µg/mL [4]
N#Cc1cccc(CN2CCN(CCc3ccccc3)CC2)c1 [Compound 17, 3-{[4-(2-phenylethyl)piperazin-1-yl]methyl}benzonitrile] | 1 to 25% | 1 to 25% | 26 to 49% | 1 to 25% | – | – | –
O=C(c1ccco1)N1CCN(Cc2ccccc2)CC1 [Compound 34] | – | 1 to 25% | 1 to 25% | 1 to 25% | – | – | –
O=C(Cc1ccc(Cl)cc1)N1CCN(Cc2ccccc2)CC1 [Compound 38] | 50 to 100% | – | – | – | 1 to 25% | 1 to 25% | 1 to 25%
O=C(c1ccc(Cl)cc1)N1CCN(Cc2ccccc2)CC1 [Compound 44] | 1 to 25% | 1 to 25% | 1 to 25% | 1 to 25% | – | – | –
O=C(c1coc2ccccc12)N1CCN(Cc2ccccc2)CC1 [Compound 50] | 50 to 100% | 1 to 25% | 1 to 25% | 1 to 25% | – | – | –
FC(F)(F)c1ccccc1CCN1CCN(Cc2cc3c(cc2Cl)OCO3)CC1 [Compound 86] | 50 to 100% | 26 to 49% | 1 to 25% | 1 to 25% | – | – | –
FC(F)(F)c1ccc(CN2CCN(CCc3ccccc3C(F)(F)F)CC2)o1 [Compound 87] | 26 to 49% | 1 to 25% | 1 to 25% | 1 to 25% | – | – | –
COC(=O)c1cccc(CN2CCN(CCc3ccccc3)CC2)c1 [Compound 90] | 50 to 100% | 1 to 25% | 26 to 49% | 1 to 25% | – | – | –
FC(F)(F)Oc1cccc(CN2CCN(CCc3ccccc3)CC2)c1 [Compound 91] | 1 to 25% | 1 to 25% | 26 to 49% | 1 to 25% | – | – | –
COc1ccc(CN2CCN(CCc3ccccc3C(F)(F)F)CC2)cc1Cl [Compound 95] | 50 to 100% | 1 to 25% | 26 to 49% | 1 to 25% | – | – | –
CC(C)(C)OC(=O)N1CCN(CCc2ccccc2C(F)(F)F)CC1 [Compound 96] | 50 to 100% | 1 to 25% | 1 to 25% | 26 to 49% | – | – | –
COc1cc(CN2CCN(CCc3ccccc3C(F)(F)F)CC2)c([N+](=O)[O-])cc1OC [Compound 99] | 50 to 100% | 1 to 25% | 1 to 25% | 1 to 25% | – | – | –
FC(F)(F)c1ccccc1CCN1CCN(CC2COc3ccccc3O2)CC1 (stereo not shown) [Compound 100] | 50 to 100% | 1 to 25% | 26 to 49% | 1 to 25% | – | – | –
FC(F)(F)c1ccccc1CCN1CCN(Cc2ccccc2Cl)CC1 [Compound 101] | 50 to 100% | 1 to 25% | 1 to 25% | 1 to 25% | – | – | –
Clc1cc2c(cc1CN1CCN(CCC3CCCCC3)CC1)OCO2 [Compound 102] | 50 to 100% | 1 to 25% | 1 to 25% | 1 to 25% | – | – | –
Clc1cc2c(cc1CN1CCN(CCOc3ccccc3)CC1)OCO2 [Compound 103] | 50 to 100% | 1 to 25% | 1 to 25% | 1 to 25% | – | – | –
Clc1cc2c(cc1CN1CCN(CCc3ccccc3)CC1)OCO2 [Compound 104] | 50 to 100% | 1 to 25% | 50 to 100% | 1 to 25% | – | – | –
CC(=O)c1ccccc1C(=O)N1CCN(CCc2ccccc2C(F)(F)F)CC1 [Compound 105] | 50 to 100% | 1 to 25% | 1 to 25% | 1 to 25% | – | – | –
FC(F)(F)c1ccccc1CCN1CCN(Cc2ccc3c(c2)OCO3)CC1 [Compound 107] | 50 to 100% | 1 to 25% | 50 to 100% | 1 to 25% | – | – | –
COc1ccc(CN2CCN(CCc3ccccc3C(F)(F)F)CC2)c(Cl)c1OC [Compound 108] | 50 to 100% | 1 to 25% | 1 to 25% | 1 to 25% | – | – | –
O=C(c1ccc(-c2ccccn2)s1)N1CCN(CCc2ccccc2C(F)(F)F)CC1 [Compound 126] | 50 to 100% | 1 to 25% | 1 to 25% | 1 to 25% | – | – | –
O=C(COc1ccccc1)N1CCN(C(=O)OCc2ccccc2)CC1 [Compound 139] | – | 1 to 25% | 1 to 25% | 26 to 49% | – | – | –
O=C(OCc1ccccc1)N1CCN(C(=O)c2cccs2)CC1 [Compound 146] | – | 1 to 25% | 1 to 25% | 1 to 25% | – | – | –
O=C(c1ccc2ccccc2n1)N1CCN(CCc2ccccc2C(F)(F)F)CC1 [Compound 156] | 50 to 100% | 1 to 25% | 1 to 25% | 1 to 25% | – | – | –
O=C(OCc1ccccc1)N1CCN(C(=O)c2ccc3ccccc3n2)CC1 [Compound 159] | – | 1 to 25% | 1 to 25% | 1 to 25% | – | – | –
Cc1nn(C)c2sc(C(=O)N3CCN(CCc4ccccc4C(F)(F)F)CC3)cc12 [Compound 160] | 1 to 25% | 1 to 25% | 1 to 25% | 1 to 25% | – | – | –
Cc1nn(C)c2sc(C(=O)N3CCN(C(C)c4ccccc4)CC3)cc12 (stereo not shown) [Compound 162] | – | 1 to 25% | 26 to 49% | 1 to 25% | – | – | –
O=C(OCc1ccccc1)N1CCN(Cc2ccc(Cl)nc2)CC1 [Compound 192] | – | 1 to 25% | 1 to 25% | 1 to 25% | – | – | –
COC(=O)c1cccc(CN2CCN(CCOc3ccccc3)CC2)c1 [Compound 303] | – | 1 to 25% | 26 to 49% | 1 to 25% | – | – | –
O=C(c1ccccc1)c1ccc(CN2CCN(C(=O)C3CC3)CC2)cc1 [Compound 321] | – | 1 to 25% | 1 to 25% | 1 to 25% | – | – | –
